{"source": "ChEMBL document CHEMBL1201862", "about": "“PubChem BioAssay data set” (2004)", "key": {"[1]": {"test": "THP-1 cell cytotoxicity, dose response, cytotoxicity control for Vif-APOBEC3G degradation inhibitor project, THP-1 cells (AID 1117359)", "type": "functional", "settings": "Human immunodeficiency virus 1, THP-1"}, "[2]": {"test": "cytotoxicity toward NIH3T3 fibroblasts, dose response, counter-screen, cell-based, ATP luminescence, mouse fibroblasts (AID 2010);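 further: cells exposed to compound for about 90 hours before reading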", "type": "functional"}, "[3]": {"test": "inhibitors of intracellular T. cruzi replication, confirmation, NIH3T3 host cells, beta-gal luminescence (AID 2044);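 further: luminescent beta-galactosidase reporter signal from transgenic T. cruzi replicating inside host cells; inhibitors lower the luminescence signal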", "type": "functional, cell-based"}, "Estrogen receptor beta": {"molecular_target": "Estrogen receptor beta (Homo sapiens, UniProt Q92731)"}, "Aminopeptidase N": {"molecular_target": "T1, Aminopeptidase N (Plasmodium falciparum FcB1/Columbia, UniProt O96935)", "T1 sequence (O96935 whole entry)": "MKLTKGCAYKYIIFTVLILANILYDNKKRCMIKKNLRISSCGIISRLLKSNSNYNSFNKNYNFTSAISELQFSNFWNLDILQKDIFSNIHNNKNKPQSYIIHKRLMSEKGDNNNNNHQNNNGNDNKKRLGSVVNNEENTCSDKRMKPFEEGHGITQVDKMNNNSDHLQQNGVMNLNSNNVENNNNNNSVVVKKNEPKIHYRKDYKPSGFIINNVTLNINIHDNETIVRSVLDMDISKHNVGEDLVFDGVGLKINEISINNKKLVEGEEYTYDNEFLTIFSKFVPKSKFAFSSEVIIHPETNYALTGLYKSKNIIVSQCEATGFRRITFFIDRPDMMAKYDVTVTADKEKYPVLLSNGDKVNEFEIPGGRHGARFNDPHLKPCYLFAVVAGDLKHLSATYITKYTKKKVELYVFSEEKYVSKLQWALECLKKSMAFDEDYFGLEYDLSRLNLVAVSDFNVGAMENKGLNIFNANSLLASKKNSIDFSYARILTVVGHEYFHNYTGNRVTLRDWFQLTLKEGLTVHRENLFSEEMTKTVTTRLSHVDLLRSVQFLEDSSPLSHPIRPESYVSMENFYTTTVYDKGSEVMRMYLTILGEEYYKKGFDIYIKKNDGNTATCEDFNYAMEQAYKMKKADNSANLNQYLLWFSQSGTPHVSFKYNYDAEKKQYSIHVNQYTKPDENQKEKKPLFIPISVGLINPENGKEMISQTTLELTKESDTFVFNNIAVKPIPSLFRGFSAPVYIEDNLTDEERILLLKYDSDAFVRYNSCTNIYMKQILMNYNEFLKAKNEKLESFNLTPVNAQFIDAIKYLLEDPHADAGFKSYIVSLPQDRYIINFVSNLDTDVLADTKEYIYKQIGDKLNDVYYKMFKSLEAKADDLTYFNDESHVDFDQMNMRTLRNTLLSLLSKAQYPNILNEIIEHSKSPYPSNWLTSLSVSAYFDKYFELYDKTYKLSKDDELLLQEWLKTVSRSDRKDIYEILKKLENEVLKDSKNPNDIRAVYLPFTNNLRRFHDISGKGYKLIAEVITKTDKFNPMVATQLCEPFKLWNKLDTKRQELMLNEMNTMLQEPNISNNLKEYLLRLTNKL", "test": "P. falciparum M1AAP inhibitors, biochemical, fluorogenic H-Leu-NHMec substrate, 1536-well (AID 1445)", "design": "species or system Plasmodium falciparum 3D7, 3D7"}, "[4]": {"test": "Luminescence Cell-Based Dose Response HTS to Identify Inhibitors of 5'UTR Stem-Loop Driven Prion Protein mRNA Translation in H4 Neuroglioblastoma Cells. [Related pubchem assays: 1827 (Project Summary), 1813 (Primary HTS)]", "type": "functional"}, "HT-1080": {"system": "HT-1080", "test": "cytotoxicity in HT1080 fibrosarcoma cells, cell-based, fluorescence readout (AID 620)", "type": "functional", "settings": "Homo sapiens"}, "[5]": {"test": "inhibitors of SNCA 5'UTR-driven reporter translation, confirmation, H4 neuroglioma cells, luminescence (AID 1988)", "type": "functional, cell-based"}, "[6]": {"molecular_target": "Luciferin 4-monooxygenase (Photinus pyralis, UniProt P08659)", "test": "Counter Screen for Luciferase-based Assay Positives. [Related pubchem assays: 620, 618, 411 ]"}, "Galanin receptor type 3": {"molecular_target": "T2, Galanin receptor type 3 (Homo sapiens, UniProt O60755)", "T2 sequence (O60755 whole entry)": "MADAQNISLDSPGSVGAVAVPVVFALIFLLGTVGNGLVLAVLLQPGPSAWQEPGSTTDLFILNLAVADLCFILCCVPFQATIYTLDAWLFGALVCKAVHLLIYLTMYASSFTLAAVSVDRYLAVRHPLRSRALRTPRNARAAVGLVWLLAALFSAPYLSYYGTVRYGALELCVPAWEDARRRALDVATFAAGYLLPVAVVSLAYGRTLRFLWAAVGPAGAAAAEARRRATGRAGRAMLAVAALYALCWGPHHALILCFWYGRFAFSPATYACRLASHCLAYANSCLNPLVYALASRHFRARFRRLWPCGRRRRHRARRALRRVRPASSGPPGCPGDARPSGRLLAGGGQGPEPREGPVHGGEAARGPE", "test": "Fluorescence-based cell-based primary high throughput dose response assay to identify antagonists of the Galanin Receptor 3 (GalR3).", "type": "functional"}, "Albumin": {"molecular_target": "Albumin (Bos taurus, UniProt P02769)", "test": "Counterscreen for inhibitors of T-cell receptor (TCR)-CD3 interaction: Fluorescence-based biochemical high throughput dose response assay to identify inhibitors of T-cell receptor (TCR)-CD3 interaction using a TAMRA-labeled BSA probe.", "type": "functional"}, "cells [7]": {"test": "cells", "type": "functional, cell-based", "settings": "HEK-CNG"}, "[8]": {"test": "Luminescence-based cell-based high throughput dose response assay to identify activators of the DAF-12 from the parasite S. stercoralis (ssDAF-12).", "type": "functional"}, "[9]": {"molecular_target": "T3, Oxysterols receptor LXR-beta (Homo sapiens, UniProt P55055)", "T3 sequence (P55055 whole entry)": "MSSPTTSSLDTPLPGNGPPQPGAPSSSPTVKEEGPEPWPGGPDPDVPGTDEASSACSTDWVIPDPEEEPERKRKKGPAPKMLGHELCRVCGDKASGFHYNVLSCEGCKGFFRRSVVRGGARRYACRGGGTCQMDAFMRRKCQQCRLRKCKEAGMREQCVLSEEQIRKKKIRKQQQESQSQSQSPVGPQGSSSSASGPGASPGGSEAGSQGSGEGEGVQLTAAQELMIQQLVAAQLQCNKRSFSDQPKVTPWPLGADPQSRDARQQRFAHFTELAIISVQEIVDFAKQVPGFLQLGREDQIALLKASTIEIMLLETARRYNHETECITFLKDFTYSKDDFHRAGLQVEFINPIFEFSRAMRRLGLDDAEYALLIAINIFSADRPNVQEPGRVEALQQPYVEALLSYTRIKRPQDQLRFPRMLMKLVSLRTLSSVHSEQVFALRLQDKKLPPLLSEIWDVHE", "test": "LXR agonists, Gal4 luciferase reporter, dose response, counter-screen for ssDAF-12 agonist project, cell-based, luminescence, HEK293, S. stercoralis campaign (AID 720737)", "type": "functional", "settings": "read-out: IC50 (the source's name)"}, "Major prion protein": {"molecular_target": "Major prion protein (Homo sapiens, UniProt P04156)", "type": "functional, cell-based"}, "cells [10]": {"test": "cells"}, "Prothrombin": {"molecular_target": "Prothrombin (Homo sapiens, UniProt P00734)", "test": "Thrombin 1536 HTS Dose Response Confirmation. [Related pubchem assays: 1046 (Thrombin 1536 HTS; hits were confirmed in this assay)]", "type": "functional"}, "BJ [11]": {"system": "BJ", "test": "cytotoxicity toward BJ-TERT-LT-ST fibroblasts, dose response, cell-based, RAS-independent, luminescence (AID 1935);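 further: BJ fibroblasts immortalized with TERT plus LT and ST oncogenes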", "type": "functional", "settings": "Homo sapiens"}, "BJ [12]": {"system": "BJ", "test": "cytotoxicity toward BJ-TERT fibroblasts, dose response, cell-based, RAS-independent, luminescence (AID 1933)", "type": "functional", "settings": "Homo sapiens"}, "BJ [13]": {"system": "BJ", "test": "cells", "type": "functional, cell-based", "settings": "Homo sapiens"}, "[14]": {"test": "cytotoxicity toward DRD oncogenic fibroblasts, dose response, cell-based, non-viral oncogenic, luminescence (AID 1934)", "type": "functional", "settings": "Homo sapiens"}, "H4": {"system": "H4", "test": "Luminescence Cell-Based Dose Response HTS to Identify Activators of 5'UTR Stem-Loop Driven Prion Protein mRNA Translation in H4 Neuroglioblastoma Cells. [Related pubchem assays: 1829 (Project Summary), 1814 (Primary HTS)]", "type": "functional", "settings": "Homo sapiens"}, "[15]": {"test": "Luminescence Cell-Based Dose Response HTS to Identify Activators of Luciferase Translation or Activity in H4 […] Cells. [Related pubchem assays: 1829 (Project Summary), 1814 (Primary HTS)]", "type": "functional"}, "[16]": {"molecular_target": "T3, Oxysterols receptor LXR-beta", "type": "functional, cell-based"}}, "note": "Activity calls are given as the source filed them."}
{"smiles": "CCCCN(CCCC)S(=O)(=O)c1ccc(NC(=O)c2cccs2)cc1", "values": [{"measurement": "CC50", "setting": "[1]", "result": "27.9 µM (active)"}, {"measurement": "EC50", "setting": "[2]", "result": "> 60 µM (not active)"}, {"measurement": "EC50", "setting": "[3]", "result": "1.83 µM (active)"}]}
{"smiles": "CCN1CCN(Cc2c(O)c(Cl)cc3c(C)cc(=O)oc23)CC1", "values": [{"measurement": "IC50", "setting": "Estrogen receptor beta", "result": "18 µM (active)"}, {"measurement": "IC50", "setting": "Aminopeptidase N", "result": "38.3 µM (active)"}]}
{"smiles": "O=C(Nc1cc(C(F)(F)F)ccc1N1CCOCC1)C1Cc2ccccc2CN1C(=O)c1ccco1", "note": "(stereo unspecified)", "values": [{"measurement": "IC50", "setting": "Estrogen receptor beta", "result": "5.94 µM (active)"}]}
{"smiles": "C=CCn1c(C)cc(C(=O)CSc2nc3ccccc3[nH]2)c1C", "values": [{"measurement": "EC50", "setting": "[4]", "result": "11.1 µM (active)"}, {"measurement": "EC50", "setting": "HT-1080", "result": "> 50 µM (not active)"}, {"measurement": "EC50", "setting": "[5]", "result": "9.31 µM (active)"}, {"measurement": "EC50", "setting": "[6]", "result": "< 0.2 µM (active)"}]}
{"smiles": "CC1(C)CC2CC(C)(CN2S(=O)(=O)c2ccc(C(=O)Nc3cccc(S(=O)(=O)N4CCOCC4)c3)cc2)C1", "note": "(stereo unspecified)", "values": [{"measurement": "IC50", "setting": "Galanin receptor type 3", "result": "0.805 µM (active)"}, {"measurement": "IC50", "setting": "Albumin", "result": "> 94.1 µM (inactive)"}, {"measurement": "EC50", "setting": "cells [7]", "result": "> 29.9 µM (inactive)"}]}
{"smiles": "CCOC(=O)N1CCC(/N=c2/c(-c3ccc(C)cc3)c(O)c2=O)CC1", "values": [{"measurement": "IC50", "setting": "[8]", "result": "> 67.5 µM (inactive)"}, {"measurement": "EC50", "setting": "[9]", "result": "> 67.5 µM (inactive)"}]}
{"smiles": "CCc1nc(SCC(=O)NNC(=O)c2ccc(C)cc2)c2ccccc2n1", "values": [{"measurement": "IC50", "setting": "Major prion protein", "result": "1.36 µM (active)"}, {"measurement": "IC50", "setting": "cells [10]", "result": "> 138 µM (inactive)"}]}
{"smiles": "COc1ccc(CN2C(=O)c3ccccc3C2C(=O)NC2CCCCCC2)c(OC)c1", "note": "(stereo unspecified)", "values": [{"measurement": "IC50", "setting": "Prothrombin", "result": "10.8 µM (active)"}]}
{"smiles": "CCC1(CC)Cc2ccccc2-c2nc(S)nc(O)c21", "values": [{"measurement": "IC50", "setting": "Major prion protein", "result": "3.08 µM (active)"}, {"measurement": "IC50", "setting": "cells [10]", "result": "> 138 µM (inactive)"}]}
{"smiles": "O=C(c1c(Cl)nc2sccn12)N1CCN(c2cccc(Cl)c2)CC1", "values": [{"measurement": "EC50", "setting": "BJ [11]", "result": "1.36 µM (inconclusive)"}, {"measurement": "EC50", "setting": "HT-1080", "result": "11.3 µM (active)"}, {"measurement": "EC50", "setting": "BJ [12]", "result": "3.07 µM (active)"}, {"measurement": "EC50", "setting": "[6]", "result": "0.39 µM (active)"}, {"measurement": "EC50", "setting": "BJ [13]", "result": "75.7 µM (inconclusive)"}, {"measurement": "EC50", "setting": "[14]", "result": "1.56 µM (active)"}]}
{"smiles": "Cn1ccnc1SCC(=O)c1c[nH]c2ccccc12", "values": [{"measurement": "EC50", "setting": "H4", "result": "< 0.195 µM (active)"}, {"measurement": "IC50", "setting": "[8]", "result": "> 67.5 µM (inactive)"}, {"measurement": "EC50", "setting": "[15]", "result": "0.343 µM (active)"}, {"measurement": "EC50", "setting": "[9]", "result": "> 67.5 µM (inactive)"}]}
{"smiles": "Cc1cc(OCc2cc(C(=O)NCc3cc(C(C)C)no3)no2)cc(C)c1Cl", "values": [{"measurement": "EC50", "setting": "[16]", "result": "> 67.5 µM (inactive)"}]}
